Source: patent US6528491B2, “Pyranoside derivatives” (Boehringer Ingelheim Pharma KG, priority 2000, dated 2003)

Molecular target: LTB4 receptor (Homo sapiens, UniProt Q15722)
Assay: receptor binding test
Source text: The activity can be investigated pharmacologically and biochemically using tests as disclosed for example in WO 93/16036, pp. 15 to 17; reference is hereby made to the contents of this publication.

LTB4 receptor, sequence (Q15722 whole entry): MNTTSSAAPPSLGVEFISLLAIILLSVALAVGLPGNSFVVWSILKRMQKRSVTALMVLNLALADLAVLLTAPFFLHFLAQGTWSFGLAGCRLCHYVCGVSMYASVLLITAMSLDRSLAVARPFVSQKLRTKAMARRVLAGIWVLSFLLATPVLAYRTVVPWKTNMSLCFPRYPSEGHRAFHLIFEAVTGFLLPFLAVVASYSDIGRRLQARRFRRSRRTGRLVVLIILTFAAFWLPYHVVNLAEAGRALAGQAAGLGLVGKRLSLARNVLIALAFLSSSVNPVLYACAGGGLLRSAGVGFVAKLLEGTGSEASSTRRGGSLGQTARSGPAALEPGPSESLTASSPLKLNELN

Ki: 3.6 nM
Compound: CCCc1cc(-c2ccc(C(=N)N)cc2)ccc1OCCOc1cccc(O[C@@H]2O[C@H](C(=O)O)[C@@H](O)[C@H](O)[C@H]2O)c1 [Example 1, 3′-n-propyl-4′-[2-(3-hydroxyphenoxy)-ethoxy]-1,1′-biphenyl-4-carboximidamide-O-β-D-glucuronide]
